Strand notation (5' to 3'): a small letter for the sugar, then the base; units joined by * are phosphorothioate-linked, units joined directly phosphodiester-linked; [ ] holds rarer units or linkages, { } end groups; capitals alone tell only the bases. e = 2'-O-(2-methoxyethyl) (MOE); [5mC] = 5-methylcytosine; d = 2'-deoxy (DNA)
These substances were tested on human Factor 7 mRNA (assay: Antisense inhibition of human Factor 7 mRNA in HepB3 cells, 50 nM antisense oligonucleotide, lipofectin). Settings: Table 13 (microwalk), 50 nM, lipofectin, approximately 24 hours.
Format: cell-based
Summary of the method: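 Readout is percent reduction of Factor 7 message compared with untreated cells, after correction for total RNA content quantified by RIBOGREEN®. Cultures were seeded at 4,000 cells per well and treated for about 24 hours before RNA extraction.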
“422226 (antisense e[5mC]*eA*dT*dG*dG*dT*dG*dA*dT*dG*d[5mC]*dT*dT*d[5mC]*dT*eG*eA*eA*eT*eT) [compound 422226]” was tested, and the “% Inhibition” value was 41%. For “422227 (antisense eG*e[5mC]*dA*dT*dG*dG*dT*dG*dA*dT*dG*d[5mC]*dT*dT*d[5mC]*eT*eG*eA*eA*eT) [compound 422227]”, the “% Inhibition” value was 67%. In the case of “422230 (antisense e[5mC]*eA*dT*dG*d[5mC]*dA*dT*dG*dG*dT*dG*dA*dT*dG*d[5mC]*eT*eT*e[5mC]*eT*eG) [compound 422230]”, the “% Inhibition” value is reported as 65%.

Same assay, conditions: gapmers targeted to nucleobases 4868 to 4899 of SEQ ID NO: 1, Table 8
For “422225 (antisense eA*eG*eG*dA*dG*d[5mC]*d[5mC]*d[5mC]*dG*dA*dG*dT*dT*d[5mC]*dT*dG*d[5mC]*eA*eG*eG) [compound 422225]”, the “% Inhibition of human Factor 7 mRNA levels” value was 56%.

Same assay, conditions: oligonucleotides targeted to nucleobases 11830 to 11869 of SEQ ID NO: 1 (Table 9)
In the case of “422231 (antisense eT*e[5mC]*dA*dG*dG*dG*d[5mC]*dT*dG*dG*dT*dT*dT*dT*dG*eG*eA*eG*eG*eA) [compound 422231]”, the “% Inhibition (human Factor 7 mRNA levels)” value is reported as 22%. In the case of “422232 (antisense eG*eT*d[5mC]*dA*dG*dG*dG*d[5mC]*dT*dG*dG*dT*dT*dT*dT*eG*eG*eA*eG*eG) [compound 422232]”, the “% Inhibition (human Factor 7 mRNA levels)” value is reported as 41%. For “422233 (antisense eG*eG*dT*d[5mC]*dA*dG*dG*dG*d[5mC]*dT*dG*dG*dT*dT*dT*eT*eG*eG*eA*eG) [compound 422233]”, the “% Inhibition (human Factor 7 mRNA levels)” value was 46%. With “422234 (antisense eT*eG*dG*dT*d[5mC]*dA*dG*dG*dG*d[5mC]*dT*dG*dG*dT*dT*eT*eT*eG*eG*eA) [compound 422234]” the “% Inhibition (human Factor 7 mRNA levels)” value was 62%. For “422235 (antisense eA*eT*dG*dG*dT*d[5mC]*dA*dG*dG*dG*d[5mC]*dT*dG*dG*dT*eT*eT*eT*eG*eG) [compound 422235]”, the “% Inhibition (human Factor 7 mRNA levels)” value was 50%. For “422236 (antisense eA*eA*dT*dG*dG*dT*d[5mC]*dA*dG*dG*dG*d[5mC]*dT*dG*dG*eT*eT*eT*eT*eG) [compound 422236]”, the “% Inhibition (human Factor 7 mRNA levels)” value was 44%. With “422237 (antisense e[5mC]*eA*dA*dT*dG*dG*dT*d[5mC]*dA*dG*dG*dG*d[5mC]*dT*dG*eG*eT*eT*eT*eT) [compound 422237]” the “% Inhibition (human Factor 7 mRNA levels)” value was 50%. In the case of “422238 (antisense eA*e[5mC]*dA*dA*dT*dG*dG*dT*d[5mC]*dA*dG*dG*dG*d[5mC]*dT*eG*eG*eT*eT*eT) [compound 422238]”, the “% Inhibition (human Factor 7 mRNA levels)” value is reported as 64%. “422239 (antisense eG*eA*d[5mC]*dA*dA*dT*dG*dG*dT*d[5mC]*dA*dG*dG*dG*d[5mC]*eT*eG*eG*eT*eT) [compound 422239]” was tested, and the “% Inhibition (human Factor 7 mRNA levels)” value was 67%. For “422240 (antisense eA*eG*dA*d[5mC]*dA*dA*dT*dG*dG*dT*d[5mC]*dA*dG*dG*dG*e[5mC]*eT*eG*eG*eT) [compound 422240]”, the “% Inhibition (human Factor 7 mRNA levels)” value was 66%. With “422241 (antisense eG*eA*dG*dA*d[5mC]*dA*dA*dT*dG*dG*dT*d[5mC]*dA*dG*dG*eG*e[5mC]*eT*eG*eG) [compound 422241]” the “% Inhibition (human Factor 7 mRNA levels)” value was 61%. “422242 (antisense eG*eG*dA*dG*dA*d[5mC]*dA*dA*dT*dG*dG*dT*d[5mC]*dA*dG*eG*eG*e[5mC]*eT*eG) [compound 422242]” was tested, and the “% Inhibition (human Factor 7 mRNA levels)” value was 64%. For “422243 (antisense eA*eG*dG*dA*dG*dA*d[5mC]*dA*dA*dT*dG*dG*dT*d[5mC]*dA*eG*eG*eG*e[5mC]*eT) [compound 422243]”, the “% Inhibition (human Factor 7 mRNA levels)” value was 62%. “422244 (antisense eG*eA*dG*dG*dA*dG*dA*d[5mC]*dA*dA*dT*dG*dG*dT*d[5mC]*eA*eG*eG*eG*e[5mC]) [compound 422244]” was tested, and the “% Inhibition (human Factor 7 mRNA levels)” value was 55%. With “422245 (antisense eT*eG*dA*dG*dG*dA*dG*dA*d[5mC]*dA*dA*dT*dG*dG*dT*e[5mC]*eA*eG*eG*eG) [compound 422245]” the “% Inhibition (human Factor 7 mRNA levels)” value was 24%. For “422246 (antisense e[5mC]*eT*dG*dA*dG*dG*dA*dG*dA*d[5mC]*dA*dA*dT*dG*dG*eT*e[5mC]*eA*eG*eG) [compound 422246]”, the “% Inhibition (human Factor 7 mRNA levels)” value was 46%.
